Patent US20250058027A1, “Nanoyarns as Drug-Releasing Facilitator” (Amrita Vishwa Vidyapeetham, priority 2023, published 2025)
Where a name gives a salt, the structure may show the parent alone. Read-outs that look alike come from different tables or passages of the source.

Parameters: species or system Yorkshire-desi crossbred pigs
Conditions: pig, in vivo
Description: To assess the feasibility and safety of the developed device, in vivo implantation of nanostent was done in the porcine bile duct under fluoroscopic guidance via ERCP procedure. In this embodiment, in a total of 14 animals (Yorkshire-desi crossbred pigs), nanostents and control SEMS (SEMS without nanoyarns) were implanted and analyzed for two-time points (3 and 5 months). The fluoroscopic images of the control and nanostent implanted bile duct reveal the proper deployment of the stents in the bile duct. This points to the feasibility of implantation of the nanoyarn-integrated SEMS in vivo.
Endoscopic follow-up was performed in the animals at regular intervals. Blood and bile were collected for analysis of the drug content at intermittent time periods. These were then tested for the presence of GEM and its metabolite by HPLC. GEM and its metabolite DFDU could not be detected in blood up to the limit of its detection i.e., 300 ng. […] The drug content in bile was also undetectable, owing to the drug release happening in a continuously flowing bile fluid. However, the presence of remnant drug could be measured in the nanoyarns taken from explanted stents at 3 and 5 months, to be ˜1000 μg and 50 μg respectively. This confirms that the nanoyarn integrated with the stent can provide a localized drug release over prolonged time periods.

drug/metabolite in blood | drug/metabolite in blood (Yorkshire-desi crossbred) | drug content in bile | SMILES
< 300 ng | – | – | O=c1ccn(C2OC(CO)C(O)C2(F)F)c(=O)[nH]1 (stereo not drawn) [DFDU]
– | < 300 ng | undetectable | Nc1ccn([C@@H]2O[C@H](CO)[C@@H](O)C2(F)F)c(=O)n1 [GEM, Gemcitabine hydrochloride]
